What was measured:
[1] = humans, without enhancer; cited from earlier work
[2] = Dose versus plasma AUC pharmacokinetic study of paclitaxel SNEOF after cyclosporin A oral pre-treatment in wild type mice; type: in vivo, FVB Wild type Mice; details: 10-60 mg/kg p.o., CsA constant at 10 mg/kg
Procedure: Each cohort consisted of 20 mice. At the specified times, animals were anaesthetized using metofane. After fixation on their back, with their chest in an upright position blood was collected by cardiac puncture using a 1 mL polypropylene syringe fitted with 25 g needle. Blood was transferred immediately into tubes containing potassium EDTA as anticoagulant and mixed by inversion. Blood samples were centrifuged vial for 5 min at 4000 g. The supernatant plasma fraction was transferred to a clean tube with appropriate label and stored at -20° C. until analyses. […] Plasma samples for subsequent analysis were obtained from all animals. […] Plasma concentration data were reported. Plasma concentrations versus time curves were fitted using the […] software package (version 3.0) and pharmacokinetic parameters: […]

## CC(=O)O[C@H]1C(=O)[C@@]2(C)[C@H]([C@H](OC(=O)c3ccccc3)[C@]3(O)C[C@H](OC(=O)[C@H](O)[C@@H](NC(=O)c4ccccc4)c4ccccc4)C(C)=C1C3(C)C)[C@]1(OC(C)=O)CO[C@@H]1C[C@@H]2O [paclitaxel, Paclitaxel]
[1]
  systemic bioavailability after oral paclitaxel administration: less than 6%
[2]
  linearity of oral bioavailability with dose: not linear but decreased significantly with dose

— patent US20060292186A1, “Self-nanoemulsifying oily formulation for the administration of poorly water-soluble drugs” (Novagali Pharma SA, priority 2003, published 2006)
